Measurements from patent US20240199624A1, “COMPOUNDS, COMPOSITIONS, AND METHODS” (CHDI Foundation, Inc., priority 2022, published 2024).

What was measured:
Format in all cases: biochemical
[1] = target: T1, human MutSbeta (Homo sapiens, UniProt P20585+P43246); test: ADP Glo assay 2.2; settings: as 2.1 but buffer with 2 mM GSH
T1 construct: Msh2(1-934), Gene ID NP_000242.1; Msh3(1-1137), Gene ID J04810.1
Method: (§1) ADP Glo assay 2.1: Enzyme human MutSbeta (Msh2(1-934), Gene ID NP_000242.1, Msh3(1-1137), Gene ID J04810.1) with 22 bp biotin-labeled DNA containing a GT-mismatch (purchased from Curia Global, TOP 5′-[…]-3′; BOT 3′-AGTAGCTAGGC - - - CGAAGTCTACC-5′-Biotin) was pre-incubated in assay buffer (25 mM HEPES pH=7.5, 150 mM KCl, 5 mM MgCl2, 5 mM GSH, 0.1% Pluronic F-127, 0.2% Ovalbumin) to allow formation of the enzyme-DNA complex. Plates with spotted compounds in serial dilutions in DMSO (80 nL) were filled with ATP (2 μL, 10 μM final concentration) followed by an incubation of 30 min at RT. Then, enzyme was added (2 μL, 7 nM final concentration) and the reaction was allowed to proceed for 60 min at 37° C. After the ATPase reaction, the commercially available “ADP-Glo Reagent” was added (incubate 40 min at RT) to deplete remaining ATP via the activity of […]. Subsequently, the commercially available “Kinase Detection Reagent” converted ADP to ATP via the activity of PEP and Pyruvate kinase. The ATP was then converted into light by Ultra-Glo Luciferase. The obtained luminescence was proportional to the ADP concentration generated during the initial ATPase reaction. The luminescence signal was measured with an Envision reader, raw data were analyzed towards controls (full reaction=0% inhibition; no reaction in absence of enzyme=100% inhibition) and IC50 curves were analyzed with the inhouse software Aplus.
ADP Glo assay 2.2: A similar protocol was used as in the ADP Glo Assay 2.1 above, except the following assay buffer was used: 25 mM HEPES pH=7.5, 150 mM KCl, 5 mM MgCl2, 2 mM GSH, 0.1% Pluronic F-127, 0.2% Ovalbumin. It is contemplated the solubility of the compounds and/or varying test occasions and/or assay conditions may account for variability of assay results.

[2] = target: T1, human MutSbeta; test: ADP Glo assay 2.1; settings: 10 μM ATP, 7 nM enzyme; buffer with 5 mM GSH, 0.2% Ovalbumin
Method: as §1

[3] = target: T1, human MutSbeta; test: P33 SPA 1.1
Method: P33 SPA: Enzyme human MutSbeta (Msh2(1-934), Gene ID NP_000242.1, Msh3(1-1137), Gene ID J04810.1) and 22 bp biotin-labeled DNA containing a GT-mismatch (purchased from Curia Global, TOP 5′-[…]-3′; BOT 3′-AGTAGCTAGGC - - - CGAAGTCTACC-5′-Biotin) were pre-incubated at equimolar concentration for 15 min at room temperature (“RT”) in assay buffer (25 mM HEPES pH=7.5, 150 mM KCl, 2 mM MgCl2, 2 mM GSH, 0.01% Tween-20). ATP (10 μL, 2× final concentration of γ-[^33P]-ATP (final 0.1 nM; Hartmann Analytic, FF-301) and cold ATP (final 2 μM)) was added to compounds (400 nL spotted as concentration response in 100% DMSO into wells of an OptiPlate) and pre-incubated for 30 min at RT. Then, enzyme with DNA was added (10 μL, 2× final concentration of 7 nM) and incubated for 60 min at 37° C. in a total volume of 20 μL per well. Decay of [^33P] with a half-life of 25.4 days was corrected by increasing the concentration of the labelled nucleotide with the appropriate factor; all steps with radioactive ATP were conducted behind appropriate shielding. Then, 20 μL of a 1:2 mix of ammonium molybdate (20 mg/mL Ammonium molybdate in 2.4 M HCl) and SPA beads (ProteinA SPA beads from Perkin Elmer Cat #RPNQ0019 at 7.5 mg/mL+1% azide) was added per well and incubated at RT for 2 min. Then, 40 μL of 7 M CsCl and 0.1 M citrate was added per well and incubated for 20 h at RT before measuring on the MicroBeta (top read mode, 1 min per well). For full plate processing, all reagents were transferred with a pipettor (Selma, CyBio) apart from the final reagent (CsCl+citrate) which was added with a dispenser (MultiFlo, BioTek). Data analysis during assay development was done with Prism GraphPad.
P33 SPA 11: For the SPA 1.1 assay, the addition of reagents was reversed, i.e. enzyme was first added to the compounds and pre-incubated followed by ATP addition; thus, the assay was aligned with ADP Glo 1.1 reagent addition order. The assay was repeated under similar conditions, and the results are shown below in Table 5B. It is contemplated the solubility of the compounds and/or varying test occasions may account for variability of assay results.

[4] = Table 5A, enzyme first added to compounds, then ATP
[5] = Table 5B, assay repeated under similar conditions

T1 sequence (P43246 whole entry): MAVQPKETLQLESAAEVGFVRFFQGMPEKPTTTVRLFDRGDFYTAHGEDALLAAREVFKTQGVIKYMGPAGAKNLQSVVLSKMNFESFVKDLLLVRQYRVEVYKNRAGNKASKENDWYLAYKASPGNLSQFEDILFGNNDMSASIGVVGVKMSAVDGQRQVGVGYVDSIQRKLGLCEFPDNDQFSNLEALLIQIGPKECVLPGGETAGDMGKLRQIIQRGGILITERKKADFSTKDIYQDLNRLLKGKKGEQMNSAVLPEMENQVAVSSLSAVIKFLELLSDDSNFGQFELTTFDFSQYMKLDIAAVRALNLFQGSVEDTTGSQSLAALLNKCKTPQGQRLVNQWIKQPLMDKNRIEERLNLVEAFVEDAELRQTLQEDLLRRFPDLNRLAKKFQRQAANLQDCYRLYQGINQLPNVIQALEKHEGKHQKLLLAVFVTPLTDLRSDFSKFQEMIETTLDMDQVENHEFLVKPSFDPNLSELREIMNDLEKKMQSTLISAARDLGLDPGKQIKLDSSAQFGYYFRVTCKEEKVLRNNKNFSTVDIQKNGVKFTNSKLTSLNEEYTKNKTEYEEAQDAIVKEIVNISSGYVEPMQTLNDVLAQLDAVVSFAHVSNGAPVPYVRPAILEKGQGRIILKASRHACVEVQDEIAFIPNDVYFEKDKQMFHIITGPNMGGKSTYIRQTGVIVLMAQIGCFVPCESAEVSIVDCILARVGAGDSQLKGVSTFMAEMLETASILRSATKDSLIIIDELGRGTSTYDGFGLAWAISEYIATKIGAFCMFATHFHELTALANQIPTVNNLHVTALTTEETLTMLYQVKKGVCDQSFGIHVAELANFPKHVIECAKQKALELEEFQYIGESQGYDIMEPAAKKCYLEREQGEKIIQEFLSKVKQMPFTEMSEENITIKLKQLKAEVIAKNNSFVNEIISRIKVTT
T1 sequence (P20585 whole entry): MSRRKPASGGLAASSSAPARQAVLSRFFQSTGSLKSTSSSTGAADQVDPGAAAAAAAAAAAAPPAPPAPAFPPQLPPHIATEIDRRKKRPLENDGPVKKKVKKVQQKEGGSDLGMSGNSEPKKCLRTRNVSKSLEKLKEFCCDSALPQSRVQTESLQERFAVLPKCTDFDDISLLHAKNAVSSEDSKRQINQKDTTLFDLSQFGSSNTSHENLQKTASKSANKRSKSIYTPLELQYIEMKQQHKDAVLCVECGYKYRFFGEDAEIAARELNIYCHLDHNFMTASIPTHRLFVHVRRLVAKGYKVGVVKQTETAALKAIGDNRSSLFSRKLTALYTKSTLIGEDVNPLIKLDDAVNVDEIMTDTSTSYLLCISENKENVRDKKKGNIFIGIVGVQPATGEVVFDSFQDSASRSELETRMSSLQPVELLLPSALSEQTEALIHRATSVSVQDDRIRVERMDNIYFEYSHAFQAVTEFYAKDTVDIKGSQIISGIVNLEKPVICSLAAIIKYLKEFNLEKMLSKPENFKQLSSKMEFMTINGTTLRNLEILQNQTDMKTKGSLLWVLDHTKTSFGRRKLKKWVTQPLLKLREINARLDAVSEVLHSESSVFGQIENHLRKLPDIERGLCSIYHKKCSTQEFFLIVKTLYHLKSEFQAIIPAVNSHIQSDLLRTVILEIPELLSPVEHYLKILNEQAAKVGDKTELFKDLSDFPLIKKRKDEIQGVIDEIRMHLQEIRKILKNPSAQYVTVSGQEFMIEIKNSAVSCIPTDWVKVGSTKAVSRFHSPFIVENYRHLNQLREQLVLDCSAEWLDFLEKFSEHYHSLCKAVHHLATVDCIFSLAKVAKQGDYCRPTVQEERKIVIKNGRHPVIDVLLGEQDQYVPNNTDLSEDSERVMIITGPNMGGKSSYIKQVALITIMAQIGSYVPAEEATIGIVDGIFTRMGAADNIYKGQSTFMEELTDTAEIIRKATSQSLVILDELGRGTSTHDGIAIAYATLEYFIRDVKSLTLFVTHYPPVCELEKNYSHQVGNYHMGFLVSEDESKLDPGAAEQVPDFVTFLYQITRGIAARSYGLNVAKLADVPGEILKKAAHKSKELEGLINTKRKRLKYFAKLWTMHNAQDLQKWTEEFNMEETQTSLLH

Row | Compound | IC50 [1] [µM] | IC50 [2] [µM] | IC50 [3, 4] [µM] | IC50 [3, 5] [µM]
1 | CN1CCN(c2nc(Nc3cccc(C4CC4C(=O)O)c3)c3nccnc3n2)CC1 (single isomer, unassigned) [Compound 48] | 27 | 13 | 12 | 9
2 | Cc1ccc(Nc2nc(N3CCCN(C)CC3)nc3nccnc23)cc1C [Compound 23, N-(3,4-dimethylphenyl)-2-(4-methyl-1,4-diazepan-1-yl)pteridin-4-amine] |  | ≥ 200 | 71 | 64
3 | Cc1ccc(Nc2nc(N3CCN(C(C)C)CC3)nc3nccnc23)cc1C [Compound 24] | 60 | 37 | 24 | 25
4 | Cc1cc(CNc2nc(N3CCN(C)CC3)nc3nccnc23)ccc1F [Compound 25] | 35 | 29 | 20 | 24
5 | Cc1ccc(CNc2nc(N3CCN(C)CC3)nc3nccnc23)cc1C [Compound 27] | 26 | 22 | 28 | 18
6 | COc1ccc(Nc2nc(N3CCN(C)CC3)nc3nccnc23)cc1Cl [Compound 30] | 25 | 23 | 23 | 28
7 | Cc1ccc(Oc2nc(N3CCN(C)CC3)nc3nccnc23)cc1C [Compound 32] |  | ≥ 200 | 118 | 47
8 | CN1CCN(c2nc(Nc3cccc(Cl)c3)c3nccnc3n2)CC1 [Compound 33, N-(3-chlorophenyl)-2-(4-methylpiperazin-1-yl)pteridin-4-amine] | 43 | 35 | 44 | 34
9 | CCC(=O)Nc1cccc(Nc2nc(N3CCN(C)CC3)nc3nccnc23)c1 [Compound 37] | 97 | 71 | 34 | 119
10 | Cc1cc(Nc2nc(N3CCN(C)CC3)nc3nccnc23)ccc1C(N)=O [Compound 41] | 50 | 28 |  | 50
11 | CN1CCN(c2nc(NCc3cccc(S(N)(=O)=O)c3)c3nccnc3n2)CC1 [Compound 44] | 88 |  |  | 71
12 | Cc1ccc(Nc2nc(N3CCN(C)CC3)nc3nccnc23)cc1C(N)=O [Compound 45] | 76 | 55 | 38 | 84
13 | CC(=O)Nc1cccc(CNc2nc(N3CCN(C)CC3)nc3nccnc23)c1 [Compound 46] | 53 | 38 | 104 | 120

More lines, in order of falling IC50 [3, 5], values ahead:

Row | IC50 [1] [µM] | IC50 [2] [µM] | IC50 [3, 4] [µM] | IC50 [3, 5] [µM] | Compound
14 | 82 | 38 | 55 | 131 | Cc1ccc(CNc2nc(N3CCCN(C)CC3)nc3nccnc23)cc1C [Compound 28]
15 | 119 | ≥ 200 |  | 108 | CN1CCN(c2nc(NCc3cccc(S(C)(=O)=O)c3)c3nccnc3n2)CC1 [Compound 42]
16 |  | ≥ 200 | 43 | 90 | CN1CCN(c2nc(Nc3cccc(F)c3)c3nccnc3n2)CC1 [Compound 34]
17 | 95 | 36 | 59 | 75 | Cc1cc(CNc2nc(N3CCN(C(C)C)CC3)nc3nccnc23)ccc1F [Compound 26]
18 |  | ≥ 200 | 120 | 61 | Cc1cc(CNc2nc(N3CCCN(C)CC3)nc3nccnc23)ccc1F [Compound 29]
19 | 34 | 16 | 43 | 61 | COc1cccc(Nc2nc(N3CCN(C)CC3)nc3nccnc23)c1 [Compound 40]
20 | 106 |  |  | 59 | Cc1ccc(Nc2nc(N3CCN(C)CC3)nc3nccnc23)cc1S(N)(=O)=O [Compound 43]
21 | 38 | 55 | 59 | 56 | CN1CCN(c2nc(Nc3cccc(C4CC4C(=O)O)c3)c3nccnc3n2)CC1 (single isomer, unassigned) [Compound 47]
22 |  | ≥ 200 | 80 | 55 | CCC(=O)Nc1cccc(Nc2nc(N3CCCN(C)CC3)nc3nccnc23)c1 [Compound 35]
23 | 41 | 19 | 25 | 45 | Cc1ccc(Nc2nc(N3CCN(C)[C@@H](C)C3)nc3nccnc23)cc1C [Compound 31]
24 |  | ≥ 200 | 158 | 36 | Cc1cccc(Nc2nc(N3CCN(C)CC3)nc3nccnc23)c1C [Compound 39, N-(2,3-dimethylphenyl)-2-(4-methylpiperazin-1-yl)pteridin-4-amine]
25 | 10 | 13 | 19 | 9.5 | Cc1cnc2nc(N3CCN(C)CC3)nc(Nc3ccc(C)c(C)c3)c2n1 [Compound 38, N-(3,4-dimethylphenyl)-6-methyl-2-(4-methylpiperazin-1-yl)pteridin-4-amine]
